According to patent US20080227766A1, “Synergistic, Silver-Containing Biocide Composition” (THOR GMBH, priority 2005, published 2008):

Key:
[1] = test system: Staphylococcus aureus (ATCC 6538); experiment: MIC and synergy index (Kull) in Müller-Hinton broth; assay type: cell-based
Procedure: (§1) The synergism of a combination of silver with 1,2-benzisothiazolin-3-one (BIT) was tested. Silver was used in the form of silver nitrate. […] The test organism used was the gram-negative bacterium Pseudomonas aeruginosa (ATCC 9027). For the test, aqueous mixtures with different concentrations of silver nitrate and BIT were prepared and were tested for their activity on Pseudomonas aeruginosa. The aqueous mixtures further included a Müller-Hinton broth (commercial product “Merck Nr. 10393”) as nutrient medium. The cell density of Pseudomonas aeruginosa was 10^6 microbes/ml.
[…] Each sample was incubated at 120 rpm on an incubation shaker. […] Growth was shown through a clouding of the nutrient medium. In this way, the minimum inhibitory concentrations (MICs) of the two actives, individually and in combination, were ascertained. The MIC is the concentration at which there is no longer any clouding of the nutrient medium.
(§2) The synergism arising was represented numerically by calculation of the synergy index (SI). The calculation was made in accordance with the commonplace method of F. C. Kull et al., Applied Microbiology, vol. 9 (1961), p. 538. There the SI is calculated according to the following formula:
synergy index SI=Qa/QA+Qb/QB.
When this formula is applied to the biocide system BIT+Ag under test here, the parameters in the formula are defined as follows: • Qa=concentration of BIT in the biocide mixture of BIT+Ag • QA=concentration of BIT as a single biocide • Qb=concentration of Ag in the biocide mixture of BIT+Ag • QB=concentration of Ag as a single biocide
If the synergy index has a value of more than 1, this means that antagonism is present. If the synergy index adopts a value of 1, this means that the two biocides have an additive effect.
The experiment from example 2 was repeated in the same way but using the gram-positive test organism Staphylococcus aureus (ATCC 6538) instead of Pseudomonas aeruginosa.
Example 3 was repeated in the same way, but with N-methyl-1,2-benzisothiazolin-3-one (MBIT) as the biocidal component.
Example 3 was repeated, but using N-butyl-1,2-benzisothiazolin-3-one (BBIT) as the biocidal component.

[2] = test system: Pseudomonas aeruginosa (ATCC 9027); experiment: as above; assay type: cell-based; conditions: 72 h/25° C.
Procedure: as §1
The incubation time was 72 h at 25° C. Each sample was incubated at 120 rpm on an incubation shaker. After 72 h the samples were inspected for growth of Pseudomonas aeruginosa. Growth was shown through a clouding of the nutrient medium. In this way, the minimum inhibitory concentrations (MICs) of the two actives, individually and in combination, were ascertained. The MIC is the concentration at which there is no longer any clouding of the nutrient medium.
as §2
synergy index SI=Qa/QA+Qb/QB. […]

SMILES: Cn1sc2ccccc2c1=O [MBIT, N-methyl-1,2-benzisothiazolin-3-one]
- MIC at MBIT concentration Qa ([1]; 96 h/25° C., MBIT in mixture MBIT + Ag (or MBIT alone)): 20 ppm

SMILES: [Ag] [Ag, silver]
- MIC at Ag concentration Qb ([2]; Ag (from silver nitrate) in mixture BIT + Ag (or Ag alone)): 25.4 ppm
- MIC at Ag concentration Qb ([1]; 72 h/25° C., Ag in mixture BIT + Ag (or Ag alone)): 19.1 ppm
- MIC at Ag concentration Qb ([1]; 96 h/25° C., Ag in mixture BBIT + Ag (or Ag alone)): 25.4 ppm
- MIC at Ag concentration Qb ([1]; 96 h/25° C., Ag in mixture MBIT + Ag (or Ag alone)): 27 ppm

SMILES: CCCCn1sc2ccccc2c1=O [BBIT, N-butyl-1,2-benzisothiazolin-3-one]
- MIC at BBIT concentration Qa ([1]; 96 h/25° C., BBIT in mixture BBIT + Ag (or BBIT alone)): 20 ppm

SMILES: O=c1[nH]sc2ccccc12 [BIT, 1,2-benzisothiazolin-3-one]
- MIC at BIT concentration Qa ([2]; BIT in mixture BIT + Ag (or BIT alone)): 40 ppm
- MIC at BIT concentration Qa ([1]; 72 h/25° C., BIT in mixture BIT + Ag (or BIT alone)): 20 ppm
